Laboratory results reported in patent publication US20230080054A1 (ILDONG PHARMACEUTICAL CO., LTD., priority 2021, published 2023).

Tested on: platelet-rich plasma (PRP)
Test: Recalcification time of rat platelet-rich plasma
Conditions: 30 μM, vs 2% DMSO control
Method: Example 5: Recalcification Time
1. Materials and Instruments
Isoflurane (Hana Pharm, cat. #9008), Isotonic Sodium Chloride Injection (Daihan Pharm, cat. #331), Citrate-dextrose solution (Sigma-Aldrich, cat. #C3821), Calcium chloride solution (Sigma-Aldrich, cat. #21115), 22G Syringe 10 mL (Koreavaccine), Dimethyl sulfoxide (Sigma-Aldrich, cat. #D5879), Apixaban (AK scientific, cat. #X1060), 96 Well Cell Culture Plates (SPL Life Sciences, cat. #30096), Synergy H4 Hybrid Microplate Reader (BioTek), Combi R515 Multi-purpose Centrifuge (Hanil Scientific), BS-06 Shaking & Heating Baths (JEIO TECH), and PST-60HL-4 Plate Shaker-Thermostat (Bio-San)
Seven-week-old male SD Rat (ORIENT BIO.) were maintained under controlled conditions of temperature (22±2° C.) and 12-h light/12-h dark cycle. Rats were housed in the pathogen-free facility of the Laboratory Animal Research Center in Ildong Pharmaceutical Co. Ltd. All procedures on animals were conducted in accordance with the relevant national regulatory guidelines and individual experiments approved by the Ildong Pharmaceutical Co. Ltd., Institutional Animal Care and Use Committee (IACUC) (approval No.: A2106-3, 2108-4).
The ability of test compounds to interfere with plasma coagulation, in the presence of platelets, was analyzing by measuring the recalcification time of rat plasma. The blood of animals was collected into 15 mL tubes containing Citrate-dextrose solution (9:1 v/v) before performing the assays. For recalcification time, platelet-rich plasma (PRP) samples were obtained by centrifugation at 360×g for 10 minutes. And the PRP were preincubated for 5 minutes (37° C.). In a 96 well microplate, test compounds (2 μL) were treated in 98 μL of platelet rich plasma. After mixing with a pipette, it was incubated at 37° C. for 15 minutes. The reaction was started by addition of 200 μL of pre-warmed CaCl2) (16 mM). Immediately, put the microplate in a microplate reader and the signals were measured by the following steps.
(1) 405 nm wavelength absorbance signals were recorded in every 10 seconds at 37° C.
(2) Basal absorbance signals were recorded for 0 second.
The signal variance of each of the test compounds was obtained by the following step.
(1) Background signals (t=O) were subtracted from recording values, and the resulting values were converted to change values. The values at 0 second were set to be zero.
The retardation time of test compound were calculated by the following formula:
Retardation time (sec)=[log EC50 (test sample)−log EC50 (DMSO control)]
As described above, a DMSO control group is a group to which 2% DMSO was treated.
The assay result is shown in Table 5, where compounds (30 μM) having less than 20 seconds of retardation time are marked by ‘C’; the compounds (30 μM) having retardation time of 20 seconds or more to less than 50 seconds are marked by ‘B’; and the compounds (30 μM) having retardation time of 50 seconds or more are marked by ‘A’.

SMILES | Inhibition Level (retardation time, recalcification time)
O=C(NCCc1cccc(C(F)(F)F)c1)c1cccc(Nc2ncc(-c3cccc(F)c3)cn2)c1 [Compound 79, 3-{[5-(3-fluorophenyl)pyrimidin-2-yl]amino}-N-{2-[3-(trifluoromethyl)phenyl]ethyl}benzamide] | C (compounds (30 μM) having less than 20 seconds of retardation time)
O=C(Nc1ccc(Cl)c(Cl)c1)c1cccc(Nc2ncc(-c3cccc(F)c3)cn2)c1 [Compound 118, N-(3,4-dichlorophenyl)-3-{[5-(3-fluorophenyl)pyrimidin-2-yl]amino}benzamide] | C (compounds (30 μM) having less than 20 seconds of retardation time)
O=C(N[C@@H]1C[C@H]1c1ccccc1)c1cccc(Nc2ccc(-c3cccc(F)c3)cn2)c1 [Compound 123, 3-{[5-(3-fluorophenyl)pyridin-2-yl]amino}-N-[(1R,2S)-2-phenylcyclopropyl]benzamide] | B (the compounds (30 μM) having retardation time of 20 seconds or more to less than 50 seconds)
O=C(N[C@@H]1C[C@H]1c1ccccc1)c1cccc(Nc2ccc(-c3ccccc3)nn2)c1 [Compound 68, N-[(1R,2S)-2-phenylcyclopropyl]-3-[(6-phenylpyridazin-3-yl)amino]benzamide] | A (the compounds (30 μM) having retardation time of 50 seconds or more)
O=C(N[C@@H]1C[C@H]1c1ccccc1)c1cccc(Nc2ncc(-c3cccc(F)c3)cn2)c1 [Compound 119, 3-{[5-(3-fluorophenyl)pyrimidin-2-yl]amino}-N-[(1R,2S)-2-phenylcyclopropyl]benzamide] | C (compounds (30 μM) having less than 20 seconds of retardation time)
O=C(Nc1cccc(F)c1)c1cccc(Nc2ccc(-c3cccc(F)c3)cn2)c1 [Compound 122, N-(3-fluorophenyl)-3-{[5-(3-fluorophenyl)pyridin-2-yl]amino}benzamide] | B (the compounds (30 μM) having retardation time of 20 seconds or more to less than 50 seconds)
O=C(NCCC1CCCCC1)c1cccc(Nc2ncc(-c3cccc(F)c3)cn2)c1 [Compound 80, N-(2-cyclohexylethyl)-3-{[5-(3-fluorophenyl)pyrimidin-2-yl]amino}benzamide] | C (compounds (30 μM) having less than 20 seconds of retardation time)
